The record followed here is US7375222B2, “2,4,6-Triamino-1,3,5-triazine derivative” (Astellas Pharma Inc., priority 2002, dated 2008).

Counter-ions that a name gives are not always drawn.

System in one series: not given
Assay: not given
Conditions: not given
With `CCN(CC)CCCC(C)Nc1nc(Nc2ccccc2)nc(Nc2ccc(F)cc2)n1` (centres unmarked) (hydrate or solvate) [Example 794], the melting point lay within 184 to 187 °C. Same read-out and setting: under `OCCOCCNc1nc(Nc2ccccc2)nc(Nc2ccc(F)cc2)n1` (as salt: HCl) [Example 777] stands 141 to 142 °C; under `CC(C)Nc1nc(Nc2ccccc2)nc(Nc2ccc(C(F)(F)F)cc2)n1` (as salt: HCl) [Ex 49], 198 to 200 °C; under `OCCOCCNc1nc(Nc2ccc(F)cc2)nc(Nc2ccc(F)cc2)n1` (as salt: HCl) [compound 38], 151 to 152 °C.

For a further series, the target named is T1, BEC 1 potassium channel (Homo sapiens, UniProt Q9ULD8).
T1 construct: expressed in transfected cells
T1 sequence (Q9ULD8 1-1083): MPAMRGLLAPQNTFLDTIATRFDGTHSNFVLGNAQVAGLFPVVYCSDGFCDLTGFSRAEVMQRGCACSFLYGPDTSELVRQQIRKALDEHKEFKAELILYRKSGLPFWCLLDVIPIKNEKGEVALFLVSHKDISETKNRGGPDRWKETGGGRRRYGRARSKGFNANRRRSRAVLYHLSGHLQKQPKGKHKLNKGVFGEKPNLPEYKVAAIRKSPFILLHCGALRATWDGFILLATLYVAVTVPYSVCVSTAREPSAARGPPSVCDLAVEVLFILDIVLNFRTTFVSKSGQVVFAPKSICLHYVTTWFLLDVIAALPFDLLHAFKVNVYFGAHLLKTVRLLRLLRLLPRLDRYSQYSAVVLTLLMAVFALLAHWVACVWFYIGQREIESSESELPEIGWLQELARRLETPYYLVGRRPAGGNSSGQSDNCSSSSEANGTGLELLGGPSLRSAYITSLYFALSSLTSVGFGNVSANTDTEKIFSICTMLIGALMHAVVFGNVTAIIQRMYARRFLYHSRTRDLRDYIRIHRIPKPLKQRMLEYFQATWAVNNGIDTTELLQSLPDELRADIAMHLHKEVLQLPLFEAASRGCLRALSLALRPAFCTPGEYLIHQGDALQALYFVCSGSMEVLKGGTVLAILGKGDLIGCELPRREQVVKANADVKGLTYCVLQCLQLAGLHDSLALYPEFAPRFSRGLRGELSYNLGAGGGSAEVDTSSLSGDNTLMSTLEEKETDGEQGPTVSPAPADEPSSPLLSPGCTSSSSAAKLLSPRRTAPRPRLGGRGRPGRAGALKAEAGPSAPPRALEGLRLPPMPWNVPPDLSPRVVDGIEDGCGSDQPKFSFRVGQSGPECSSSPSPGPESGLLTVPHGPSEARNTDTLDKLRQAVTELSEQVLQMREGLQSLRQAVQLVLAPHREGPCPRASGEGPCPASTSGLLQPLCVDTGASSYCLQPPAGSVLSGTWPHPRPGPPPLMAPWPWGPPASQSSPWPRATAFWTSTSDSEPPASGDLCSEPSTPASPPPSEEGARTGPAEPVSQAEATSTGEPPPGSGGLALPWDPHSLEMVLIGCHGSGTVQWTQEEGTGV
The series can be described thus: BEC 1 inhibitory activity using released amount of 86Rb ions from BEC 1-expressing cells. To be noted: 86Rb ion release, BEC 1-stably expressing CHO (dhfr-deficient) cell, 100 mM KCl stimulation; read-out: BEC1 IC50. The format is cell-based. The procedure: In general, the potassium channel can pass Rb^+ ion similar to K^+ ion, so that the channel activity can be measured using release of a radioisotope ^86Rb^+ as a marker. By incubating cells expressing the novel potassium channel protein together with ^86RbCl (e.g., 18 hr, 37° C.), ^86Rb^+ can be incorporated into the cells. The cells are washed with a low K^+ concentration physiological saline (e.g., 4.5 mM K^+) and then suspended in the same solution. When a high K^+ concentration solution (e.g., 100 mM in final concentration) is added to the cell suspension, membrane potential of the cell is depolarized and the potassium channel therefore is activated. As a result, the intracellular ^86Rb^+ is released into the extracellular part, thus radioactivity of the extracellular solution can be used as a marker of the channel activity. It is possible to screen a compound and a peptide capable of modifying activity of the BEC 1 potassium channel protein, by comparing the radioactivity released into the extracellular part when the high K^+ concentration solution is added in the presence and absence of each drug to be tested.
Method for Measuring BEC 1 Inhibitory Activity of Compounds Using Released Amount of ^86Rb ions as the Index
The channel activity of BEC 1 was measured in accordance with the method described in WO 99/37677, using amount of a radioisotope ^86Rb ion released from a BEC 1-expressing cell as the index. That is, when an ^86Rb ion-incorporated BEC 1-expressing cell was stimulated with 100 mM KCl, the radioactivity released from the cell was used as the channel activity of BEC 1. The ^86Rb ions were incorporated into a BEC 1-stably expressing cell by culturing the cell (3 hours, 37° C.) in the presence of ^86RbCl (0.5 μCi/ml), and the un-incorporated ^86Rb ions were removed by washing three times with HEPES-buffered saline (pH 7.4, 2.5 mM KCl). The cells were incubated with HEPES-buffered saline containing a compound to be tested at room temperature for 15 minutes and then further incubated with 100 mM KCl-containing HEPES-buffered saline (pH 7.4) containing the compound to be tested at room temperature for 5 minutes. The extracellular medium was recovered, and then the remaining cells were lysed with 0.1 N NaOH and recovered.
The Cerenkov radioactivity of the extracellular medium and cell lysate was respectively measured, and their total was used as the total radioactivity. The released amount of ^86Rb ions was expressed by the percentage of extracellular medium radioactivity based on the total radioactivity. The value obtained in the presence of the compound was used as a test value, and the value obtained in the absence of the compound as a control value and the value obtained when not stimulated with 100 mM KCl as a blank value. Inhibitory action of each compound was expressed by % inhibition, namely (control value−test value)×100/(control value−blank value), or by an IC50 value calculated from the % inhibition. As the test results of typical compounds are shown in the following Tables 2 and 3, it was confirmed that said compounds have the BEC 1 potassium channel inhibitory action.
In this connection, as the BEC 1-expressing cell, a BEC 1-stably expressing cell prepared in accordance with the method described in WO 99/37677 using a dihydrofolate reductase (dhfr)-deficient strain of a Chinese hamster ovary cell was used.
With `Nc1cccc(CNc2nc(Nc3ccccc3)nc(Nc3ccc(F)cc3)n2)n1` [Example 819], the IC50 worked out at 1400 nM. Still for that read-out and setting: under `CCONc1nc(Nc2ccccc2)nc(Nc2ccc(F)cc2)n1` [Example 790] stands 4700 nM. On the same count and under the same terms, under `OCCOCCNc1nc(Nc2ccccc2)nc(Nc2ccc(F)cc2)n1` [Example 777] stands 210 nM. On the same count and under the same terms, the value for `OCCNc1nc(Nc2ccccc2)nc(Nc2ccc(F)cc2)n1` [Example 773] was 1500 nM; that for `c1ccc(Nc2nc(NCc3ccncc3)nc(Nc3ccccc3)n2)cc1` [compound 1, N,N′-diphenyl-N″-(4-pyridylmethyl)-1,3,5-triazine-2,4,6-triamine] was 84 nM. For the molecule `Fc1ccc(Nc2nc(NCc3ccco3)nc(Nc3ccc(F)cc3)n2)cc1` [compound 30], the IC50 came to 73 nM. As for `CN(C)Nc1nc(Nc2ccccc2)nc(Nc2ccc(F)cc2)n1` [Example 791], the IC50 amounted to 2200 nM. Same read-out and setting: the value for `[O-][n+]1ccc(CCNc2nc(Nc3ccccc3)nc(Nc3ccccc3)n2)cc1` [Example 740] was 4900 nM; that for `Fc1ccc(Nc2nc(NCc3ccnc(F)c3)nc(Nc3ccc(Cl)cc3)n2)cc1` [Example 797] was 650 nM. The same measure, in the same setting: the value for `Fc1ccc(Nc2nc(NCc3ccco3)nc(Nc3ccccc3)n2)cc1` [Example 764] was 47 nM; that for `OCCCCCNc1nc(Nc2ccc(F)cc2)nc(Nc2ccc(F)cc2)n1` [compound 37] was 260 nM. Still for that read-out and setting: under `CC(CCCC(C)(C)O)Nc1nc(Nc2ccccc2)nc(Nc2ccccc2)n1` (centres unmarked) [Example 742] stands 1400 nM; under “N-isopropyl-N′,N″-bis(4-methoxyphenyl)-1,3,5-triazine-1,3,5-triamine hydrochloride [compound 39]”, 660 nM.

`Fc1ccc(Nc2nc(NCc3cccs3)nc(Nc3ccc(F)cc3)n2)cc1` [compound 31]: the IC50 came to 490 nM. For `OCCCNc1nc(Nc2ccccc2)nc(Nc2ccccc2)n1` [compound 21], the half-inhibitory concentration (IC50) was 590 nM. In the case of `COc1ccc(Nc2nc(Nc3ccccc3)nc(NC(C)C)n2)cc1` [Ex 48], the half-inhibitory concentration (IC50) was found to be 290 nM.

With `Fc1ccc(Nc2nc(NCc3ccnc(F)c3)nc(Nc3ccc(F)cc3)n2)cc1` [Example 743], the half-maximal inhibitory concentration (IC50) came out at 100 nM.

As to `c1ccc(Nc2nc(NCC3CCOCC3)nc(Nc3ccccc3)n2)cc1` [Example 741], the half-maximal inhibitory concentration (IC50) was 520 nM. The same measure, in the same setting: under `COCCNc1nc(Nc2ccccc2)nc(Nc2ccc(F)cc2)n1` [Example 771] stands 250 nM; under `OCCCCCNc1nc(Nc2ccccc2)nc(Nc2ccc(F)cc2)n1` [Example 776], 140 nM; under `Cc1ccc(Nc2nc(Nc3ccccc3)nc(NC(C)C)n2)cc1` [Ex 47], 720 nM. The same measure, in the same setting: the value for `COCCNc1nc(Nc2ccc(F)cc2)nc(Nc2ccc(F)cc2)n1` [compound 35] was 240 nM; that for `CONc1nc(Nc2ccccc2)nc(Nc2ccc(F)cc2)n1` [Example 789] was 9500 nM. Same read-out and setting: under `OCCOCCNc1nc(Nc2ccc(F)cc2)nc(Nc2ccc(F)cc2)n1` [compound 38] stands 180 nM; under `CC(C)Nc1nc(Nc2ccc3c(c2)OCO3)nc(Nc2ccc3c(c2)OCO3)n1` [compound 41], 400 nM. Turning to `C[C@H](CO)Nc1nc(Nc2ccccc2)nc(Nc2ccc(F)cc2)n1` [Example 779], the IC50 stood at 700 nM.

As for `C#CCNc1nc(Nc2ccccc2)nc(Nc2ccccc2)n1` [compound 16], the IC50 is 360 nM.

Regarding `Nc1cc(CNc2nc(Nc3ccccc3)nc(Nc3ccc(F)cc3)n2)ccn1` [Example 747], the half-inhibitory concentration (IC50) stood at 3600 nM.

`Fc1ccc(Nc2nc(NCC3CCCO3)nc(Nc3ccc(F)cc3)n2)cc1` (centres unmarked) [compound 36]: the concentration for half-maximal inhibition (IC50) was 480 nM. Same read-out and setting: the value for `CC(C)Nc1nc(Nc2ccccc2)nc(Nc2ccc(C(F)(F)F)cc2)n1` [Ex 49] was 140 nM.

With `OCCCNc1nc(Nc2ccccc2)nc(Nc2ccc(F)cc2)n1` [Example 774], the IC50 was 550 nM. The same measure, in the same setting: the value for `Fc1ccc(Nc2nc(NCc3ccccc3)nc(Nc3ccc(F)cc3)n2)cc1` [compound 28] was 390 nM; that for `O=C1OCCC1CNc1nc(Nc2ccccc2)nc(Nc2ccccc2)n1` (centres unmarked) [compound 24] was 480 nM; that for `CSCCCNc1nc(Nc2ccccc2)nc(Nc2ccccc2)n1` [compound 19] was 1300 nM. Same read-out and setting: under `CCN(CC)CCCC(C)Nc1nc(Nc2ccccc2)nc(Nc2ccc(F)cc2)n1` (centres unmarked) [Example 794] stands 3100 nM; under `CC(C)Nc1nc(Nc2ccccc2)nc(Nc2ccc(Cl)cc2)n1` [Ex 46], 490 nM. Regarding `Fc1ccc(CNc2nc(Nc3ccc(F)cc3)nc(Nc3ccc(F)cc3)n2)cc1` [compound 29], the IC50 is 350 nM. On the same count and under the same terms, under `COCCNc1nc(Nc2ccccc2)nc(Nc2ccc(OC)cc2)n1` [Example 808] stands 420 nM; under `COCCCNc1nc(Nc2ccccc2)nc(Nc2ccccc2)n1` [compound 18], 1100 nM. For `COc1cccc(Nc2nc(Nc3cccc(OC)c3)nc(NC(C)C)n2)c1` [compound 40], the IC50 was found to be 630 nM. The same measure, in the same setting: the value for `OCCOCCNc1nc(Nc2ccccc2)nc(Nc2ccccc2)n1` [compound 23] was 240 nM; that for `OCCCCNc1nc(Nc2ccccc2)nc(Nc2ccc(F)cc2)n1` [Example 775] was 110 nM.

Still in this series, the particulars now being: concentration of test compound is 3 μM; 86Rb ion release.
Turning to `CCNc1nc(Nc2ccccc2)nc(Nc2ccccc2)n1` [compound 53], the Inhibition ratio is 59%. On the same count and under the same terms, the value for `CCCNc1nc(Nc2ccccc2)nc(Nc2ccccc2)n1` [compound 54] was 64%; that for `c1ccc(Nc2nc(Nc3ccccc3)nc(NC3CC3)n2)cc1` [compound 62] was 44%. On the same count and under the same terms, the value for `CNc1nc(Nc2ccccc2)nc(Nc2ccccc2)n1` [compound 52] was 31%.
